Where two headings read alike, the source gives them in different places.
Columns and labels:
Assay type in all cases: cell-based
S. aureus = assay: microbe, parasite or virus in culture; details: for MIC: Staphylococcus aureus, read-out: Equivalent MIC
Description: (§1) With the determination of the sensitivity to antibiotics in mind, a suspension of 0.5 MF (Mac Farland) in physiological water was prepared from bacterial colonies selected in Petri dishes, reading being carried out on an ATB 1550 densitometer marketed by BIOMERIEUX (ATB trade mark). The suspension obtained was respectively diluted to 1/100th in the medium of the invention and Mueller-Hinton medium. VITEK cards (VITEK trade mark) containing different antibiotics at 10 concentrations were filled in vacuo into a VITEK apparatus marketed by BIOMERIEUX-VITEK. The cards were incubated for 12 hours in a VITEK incubator/reader marketed by BIOMERIEUX-VITEK. The growth kinetics were visualized and interpreted and an equivalent MIC was determined (equivalent MIC: equivalent minimum inhibitory concentration, that is to say the smallest concentration for which no bacterial growth is detected by the apparatus).
(§2) IST refers to the medium of the invention and MH signifies Mueller-Hinton medium.
(§3) *A range of concentration, of ratio 2, was tested for each antibiotic in
(§4) each of the abovementioned concentration margins.
(§5) S, I and R respectively signify "sensitive", "intermediate" and "resistant" with reference to the critical concentrations defined by the NCCLS (National Committee for Clinical Laboratory Standards).

S. epidermidis = assay: microbe, parasite or virus in culture; details: for MIC: Staphylococcus epidermidis, 12 h, read-out: Equivalent MIC
Description: as §1, §2, §3, §4, §5

E. faecalis = assay: Equivalent MIC of antibiotics in VITEK cards, gram-positive bacteria (Table 4); details: for MIC: Enterococcus faecalis, 12 h
Description: as §1, §2, §3, §4, §5

K. pneumoniae = assay: Equivalent MIC of antibiotics in VITEK cards, gram-negative bacteria (Table 3); details: for MIC: Klebsiella pneumoniae, 12 h
Description: as §1, §2, §5

S. marcescens = assay: as above; details: for MIC: Serratia marcescens, 12 h, read-out: Equivalent MIC
Description: as §1, §2, §5

P. aeruginosa = assay: as above; details: for MIC: Pseudomonas aeruginosa, 12 h, read-out: Equivalent MIC
Description: as §1, §2, §5

[1] = ATCC29213, 12 h, ATCC 29213, IST medium
[2] = ATCC29213, 12 h, ATCC 29213, MH medium

## CC[C@H]1OC(=O)[C@H](C)[C@@H](O[C@H]2C[C@@](C)(OC)[C@@H](O)[C@H](C)O2)[C@H](C)[C@@H](O[C@@H]2O[C@H](C)C[C@H](N(C)C)[C@H]2O)[C@](C)(O)C[C@@H](C)C(=O)[C@H](C)[C@@H](O)[C@]1(C)O [erythromicin]
S. aureus; ATCC 29213, IST medium
  NCCLS Category: S
S. aureus; ATCC 29213, MH medium
  NCCLS Category: S
S. aureus; CDC 2194, IST medium
  NCCLS Category: R
S. aureus; CDC 2194, MH medium
  NCCLS Category: R
S. aureus; CDC 2215, IST medium
  NCCLS Category: S
S. aureus; CDC 2215, MH medium
  NCCLS Category: S
S. aureus; 12 h, CDC 2194, IST medium
  MIC: > 32 µg/mL
S. aureus; 12 h, CDC 2194, MH medium
  MIC: > 32 µg/mL
S. aureus; 12 h, CDC 2215, IST medium
  MIC: 0.5 µg/mL
S. aureus; 12 h, CDC 2215, MH medium
  MIC: 0.5 µg/mL
S. aureus; [1]
  MIC: 0.5 µg/mL
S. aureus; [2]
  MIC: 0.25 µg/mL
S. epidermidis; CDC 2024, IST medium
  NCCLS Category: S
  MIC: 0.5 µg/mL
S. epidermidis; CDC 2024, MH medium
  NCCLS Category: S
  MIC: 0.25 µg/mL
S. epidermidis; CDC 2105, IST medium
  NCCLS Category: S
  MIC: 0.25 µg/mL
S. epidermidis; CDC 2105, MH medium
  NCCLS Category: S
  MIC: 0.25 µg/mL
S. epidermidis; CDC 2234, IST medium
  NCCLS Category: R
  MIC: > 32 µg/mL
S. epidermidis; CDC 2234, MH medium
  NCCLS Category: R
  MIC: > 32 µg/mL
E. faecalis; CDC 2073, IST medium
  NCCLS Category: R
  MIC: 16 µg/mL
E. faecalis; CDC 2073, MH medium
  NCCLS Category: R
  MIC: 16 µg/mL
E. faecalis; CDC 2230, IST medium
  NCCLS Category: I
  MIC: 4 µg/mL
E. faecalis; CDC 2230, MH medium
  NCCLS Category: I
  MIC: 4 µg/mL

## CC1COc2c(N3CCN(C)CC3)c(F)cc3c(=O)c(C(=O)O)cn1c23 (centres unmarked) [ofloxacin]
K. pneumoniae; API 88.03.111, IST medium
  NCCLS Category: S
  MIC: 1 µg/mL
K. pneumoniae; API 88.03.111, MH medium
  NCCLS Category: S
  MIC: 1 µg/mL
K. pneumoniae; API 88.08.056, IST medium
  NCCLS Category: I
  MIC: 4 µg/mL
K. pneumoniae; API 88.08.056, MH medium
  NCCLS Category: I
  MIC: 4 µg/mL
K. pneumoniae; CDC 2279, IST medium
  NCCLS Category: S
  MIC: 0.25 µg/mL
K. pneumoniae; CDC 2279, MH medium
  NCCLS Category: S
  MIC: 0.25 µg/mL
S. marcescens; API 81.45.111, IST medium
  NCCLS Category: I
  MIC: 4 µg/mL
S. marcescens; API 81.45.111, MH medium
  NCCLS Category: S
  MIC: 2 µg/mL
S. marcescens; API 81.47.110, IST medium
  NCCLS Category: R
  MIC: 16 µg/mL
S. marcescens; API 81.47.110, MH medium
  NCCLS Category: R
  MIC: 8 µg/mL

## Cc1onc(-c2ccccc2)c1C(=O)N[C@@H]1C(=O)N2[C@@H]1SC(C)(C)[C@@H]2C(=O)O [oxacillin]
S. aureus; ATCC 29213, IST medium
  NCCLS Category: S
S. aureus; ATCC 29213, MH medium
  NCCLS Category: S
S. aureus; CDC 2194, IST medium
  NCCLS Category: S
S. aureus; CDC 2194, MH medium
  NCCLS Category: S
S. aureus; CDC 2215, IST medium
  NCCLS Category: S
S. aureus; CDC 2215, MH medium
  NCCLS Category: S
S. aureus; 12 h, CDC 2194, IST medium
  MIC: 1 µg/mL
S. aureus; 12 h, CDC 2194, MH medium
  MIC: < 0.5 µg/mL
S. aureus; 12 h, CDC 2215, IST medium
  MIC: 1 µg/mL
S. aureus; 12 h, CDC 2215, MH medium
  MIC: < 0.5 µg/mL
S. aureus; [1]
  MIC: < 0.25 µg/mL
S. aureus; [2]
  MIC: < 0.25 µg/mL
S. epidermidis; CDC 2234, IST medium
  NCCLS Category: S
  MIC: 2 µg/mL
S. epidermidis; CDC 2234, MH medium
  NCCLS Category: R
  MIC: 4 µg/mL

## CCN1CCN(C(=O)N[C@@H](C(=O)N[C@@H]2C(=O)N3[C@@H]2SC(C)(C)[C@@H]3C(=O)O)c2ccccc2)C(=O)C1=O [piperacillin]
K. pneumoniae; AP 14, MH medium
  NCCLS Category: R
  MIC: 256 µg/mL
K. pneumoniae; CDC 2174, IST medium
  NCCLS Category: S
  MIC: 8 µg/mL
K. pneumoniae; CDC 2174, MH medium
  NCCLS Category: S
  MIC: 8 µg/mL
K. pneumoniae; CDC 2182, IST medium
  NCCLS Category: S
  MIC: 16 µg/mL
K. pneumoniae; CDC 2182, MH medium
  NCCLS Category: I
  MIC: 32 µg/mL
K. pneumoniae; AP 14, IST medium
  MIC: 64 µg/mL
P. aeruginosa; AP 8, IST medium
  NCCLS Category: S
  MIC: 4 µg/mL
P. aeruginosa; AP 8, MH medium
  NCCLS Category: S
  MIC: 4 µg/mL
P. aeruginosa; AP 13, IST medium
  NCCLS Category: S
  MIC: 8 to 16 µg/mL
P. aeruginosa; AP 13, MH medium
  NCCLS Category: S
  MIC: 16 µg/mL
S. marcescens; CDC 2021, IST medium
  NCCLS Category: S
  MIC: 2 µg/mL
S. marcescens; CDC 2021, MH medium
  NCCLS Category: S
  MIC: 2 µg/mL
S. marcescens; CDC 2162, IST medium
  NCCLS Category: R
  MIC: > 256 µg/mL
S. marcescens; CDC 2162, MH medium
  NCCLS Category: R
  MIC: > 256 µg/mL

## CN[C@H](CC(C)C)C(=O)N[C@H]1C(=O)N[C@@H](CC(N)=O)C(=O)N[C@H]2C(=O)N[C@H]3C(=O)N[C@H](C(=O)N[C@H](C(=O)O)c4cc(O)cc(O)c4-c4cc3ccc4O)[C@H](O)c3ccc(c(Cl)c3)Oc3cc2cc(c3O[C@@H]2O[C@H](CO)[C@@H](O)[C@H](O)[C@H]2O[C@H]2C[C@](C)(N)[C@H](O)[C@H](C)O2)Oc2ccc(cc2Cl)[C@H]1O [vancomycin]
S. aureus; ATCC 29213, IST medium
  NCCLS Category: S
S. aureus; ATCC 29213, MH medium
  NCCLS Category: S
S. aureus; CDC 2194, IST medium
  NCCLS Category: S
S. aureus; CDC 2194, MH medium
  NCCLS Category: S
S. aureus; CDC 2215, IST medium
  NCCLS Category: S
S. aureus; CDC 2215, MH medium
  NCCLS Category: S
S. aureus; 12 h, CDC 2194, IST medium
  MIC: 2 µg/mL
S. aureus; 12 h, CDC 2194, MH medium
  MIC: 1 µg/mL
S. aureus; 12 h, CDC 2215, IST medium
  MIC: 2 µg/mL
S. aureus; 12 h, CDC 2215, MH medium
  MIC: 1 µg/mL
S. aureus; [1]
  MIC: 2 µg/mL
S. aureus; [2]
  MIC: 2 µg/mL
S. epidermidis; CDC 2024, IST medium
  NCCLS Category: S
  MIC: 4 µg/mL
S. epidermidis; CDC 2024, MH medium
  NCCLS Category: S
  MIC: 4 µg/mL
S. epidermidis; CDC 2105, IST medium
  NCCLS Category: S
  MIC: 4 µg/mL
S. epidermidis; CDC 2105, MH medium
  NCCLS Category: S
  MIC: 2 µg/mL
S. epidermidis; CDC 2234, IST medium
  NCCLS Category: S
  MIC: 2 µg/mL
S. epidermidis; CDC 2234, MH medium
  NCCLS Category: S
  MIC: 2 µg/mL
E. faecalis; CDC 2017, IST medium
  NCCLS Category: I
  MIC: 8 µg/mL
E. faecalis; CDC 2017, MH medium
  NCCLS Category: I
  MIC: 16 µg/mL
E. faecalis; CDC 2225, IST medium
  NCCLS Category: S
  MIC: 4 µg/mL
E. faecalis; CDC 2225, MH medium
  NCCLS Category: S
  MIC: 4 µg/mL
E. faecalis; CDC 2230, IST medium
  NCCLS Category: S
  MIC: 1 µg/mL
E. faecalis; CDC 2230, MH medium
  NCCLS Category: S
  MIC: 1 to 2 µg/mL

## gentamicin
K. pneumoniae; CDC 2177, IST medium
  Equivalent MIC: 0.5 µg/mL
  NCCLS Category: S
K. pneumoniae; CDC 2177, MH medium
  Equivalent MIC: 0.25 µg/mL
  NCCLS Category: S
K. pneumoniae; CDC 2249, IST medium
  Equivalent MIC: 8 µg/mL
  NCCLS Category: I
K. pneumoniae; CDC 2249, MH medium
  Equivalent MIC: 8 µg/mL
  NCCLS Category: I
K. pneumoniae; CDC 2279, IST medium
  Equivalent MIC: 4 µg/mL
  NCCLS Category: S
K. pneumoniae; CDC 2279, MH medium
  Equivalent MIC: 4 µg/mL
  NCCLS Category: S
P. aeruginosa; CDC 2009, IST medium
  Equivalent MIC: 16 to 32 µg/mL
  NCCLS Category: R
P. aeruginosa; CDC 2009, MH medium
  Equivalent MIC: 32 µg/mL
  NCCLS Category: R
P. aeruginosa; CDC 2239, IST medium
  Equivalent MIC: 2 µg/mL
  NCCLS Category: S
P. aeruginosa; CDC 2239, MH medium
  Equivalent MIC: 2 µg/mL
  NCCLS Category: S
P. aeruginosa; CDC 2257, IST medium
  Equivalent MIC: 0.5 to 1 µg/mL
  NCCLS Category: S
P. aeruginosa; CDC 2257, MH medium
  Equivalent MIC: 0.5 µg/mL
  NCCLS Category: S

Reference: US5536645A, “Nutritive medium for the culture of microorganism” (priority 1993, dated 1996)
